Ends that are not written are not given here.
Tests used:
streptavidin [1] = target: T1, streptavidin (Streptomyces avidinii, UniProt P22629); conditions: peptide-streptavidin complex, experimentally observed binding constant; cited from earlier work
streptavidin [2] = target: T1, streptavidin; format: binding; conditions: peptide-streptavidin complex, association constant

T1 sequence (P22629 25-183): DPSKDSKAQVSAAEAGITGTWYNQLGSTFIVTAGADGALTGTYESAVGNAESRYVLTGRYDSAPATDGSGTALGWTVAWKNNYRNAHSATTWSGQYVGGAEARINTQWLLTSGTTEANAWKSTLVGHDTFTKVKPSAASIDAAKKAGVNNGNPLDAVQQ

In the case of AHPQFGAEK, the Kd (streptavidin [1]) is given as 204 µM and the “Observed KA” value (streptavidin [2]) is given as 0.005 µM⁻¹.

For HDHPQNL, the Kd (streptavidin [1]) is given as 282 µM and the “Observed KA” value (streptavidin [2]) is given as 0.004 µM⁻¹.

In the case of AHPQFPAEK, the Kd (streptavidin [1]) is listed as 136 µM and the “Observed KA” value (streptavidin [2]) is listed as 0.007 µM⁻¹.

In the case of AECHPQFCIEGRK, the Kd (streptavidin [1]) is listed as 0.47 µM and the “Observed KA” value (streptavidin [2]) is listed as 2.13 µM⁻¹.

In the case of AECHPQGPPCIEGRK, the Kd (streptavidin [1]) is listed as 0.23 µM and the “Observed KA” value (streptavidin [2]) is listed as 4.35 µM⁻¹.

In the case of “cyclo-(AQYGHFAE)K (AQYGHFAEK; also: cyclic, ring closure not given here)”, the Kd (streptavidin [1]) is listed as over 5000 µM and the “Observed KA” value (streptavidin [2]) is listed as 0.0002 µM⁻¹.

In the case of RCCHPQCGMVEEC, the Kd (streptavidin [1]) is listed as 1.3 µM and the “Observed KA” value (streptavidin [2]) is listed as 3.3 µM⁻¹.

In the case of AECHPQFNCIEGRK, the Kd (streptavidin [1]) is given as 7 µM and the “Observed KA” value (streptavidin [2]) is given as 0.14 µM⁻¹.

In the case of RCCHPQCGMAEEC, the Kd (streptavidin [1]) is given as 2.3 µM and the “Observed KA” value (streptavidin [2]) is given as 0.45 µM⁻¹.

In the case of RCCHPQFEPCMGC, the Kd (streptavidin [1]) is given as 0.33 µM and the “Observed KA” value (streptavidin [2]) is given as 3.0 µM⁻¹.

In the case of “cyclo-(AHPQFGAE)K (AHPQFGAEK; also: cyclic, ring closure not given here)”, the Kd (streptavidin [1]) is listed as 19 µM and the “Observed KA” value (streptavidin [2]) is listed as 0.05 µM⁻¹.

With FSHPQNT the “Observed KA” value (streptavidin [2]) was 0.008 µM⁻¹.

In the case of AECHPQFPCIEGRK, the Kd (streptavidin [1]) is listed as 0.93 µM and the “Observed KA” value (streptavidin [2]) is listed as 1.08 µM⁻¹.

In the case of “cyclo-(AHPQFPAE)K (AHPQFPAEK; also: cyclic, ring closure not given here)”, the Kd (streptavidin [1]) is given as 0.13 µM and the “Observed KA” value (streptavidin [2]) is given as 7.69 µM⁻¹.

In the case of cyclo-CHPQFC, the Kd (streptavidin [1]) is listed as 0.27 µM and the “Observed KA” value (streptavidin [2]) is listed as 3.70 µM⁻¹.

For “cyclo-CHPQGPPC (also: cyclic, closure type not given here)”, the Kd (streptavidin [1]) is given as 0.67 µM and the “Observed KA” value (streptavidin [2]) is given as 1.49 µM⁻¹.
